# Test results from patent publication US12319726B2, “Method for treating CD40-mediated diseases” (CASE WESTERN RESERVE UNIVERSITY, priority 2008, dated 2025).
# Where a SMILES comes first, the peptide text is derived from it. [ ]: non-standard residue; d: D form.
# Tests used:
# human Müller cells = format: cell-based
# From the text: (§1) Peptide consisted of the TRAF2,3 binding site of CD40 that was made cell permeable by linking them to the TAT47-57 cell penetrating peptide. Peptides were synthesized using D-amino acids following reverse amino acid sequence (ri format). The sequences for the CD40-TRAF2,3 blocking peptide was —NH2-rrrqrrkkrgy ghlteqvhaatn-OH (SEQ ID NO: 49). The TAT47-57 sequence is underlined. The peptide contains a proline (p) to histidine (h) substitution (shown in italics) that enhances affinity to TRAF2. Control (scrambled) peptide consisted of NH2-rrrqrrkkrgy ntqalahtgevh-OH (SEQ ID NO: 50). The blocking peptide was also synthesized with Alexa Fluor 488 conjugated via maleimide coupling to an additional Cys in the N terminus. Peptides were manufactured by Biopeptide Co. (San Diego, CA) and were low in endotoxin and >98% pure by HPLC. Peptides were used at 1 μM in vitro experiments and 1 μg for in vivo studies unless otherwise stated. Peptides were not toxic to human Müller and retinal endothelial cells as assessed by alamarBlue cell viability assay (Invitrogen Corporation).
# (§2) Primary human retinal endothelial cells were obtained as described (9) and cultured in complete medium supplemented with endothelial cell growth supplement from bovine pituitary (15 μg/ml; Sigma Chemical, St Louis, MO) and insulin/transferrin/selenium (Sigma Chemical). Cell identity was confirmed by incorporation of acetylated low-density lipoprotein (>90%). Endothelial cells were used between passages 3 to 6. The human Müller cell line MIO M1 (gift from Dr. Gloria Limb; University College London, UK; >95% vimentin^+, CRALBP^+ and GFAP^−) was also used. Endothelial cells were incubated with multimeric human CD154 to induce CD40 stimulation (obtained from Dr. Richard Kornbluth, Multimeric Biotherapeutics Inc., La Jolla, CA) or with a non-functional CD154 mutant (T147N) as control.
# (§3) Peptides were tested as described using the mouse endothelial cells mHEVc that expresses a chimera of the extracellular domain of human CD40 and intracytoplasmic domain of mouse CD40 (hmCD40) with either a mutation that prevents recruitment of TRAF2,3 (hmCD40 ΔT2,3) or TRAF6 (hmCD40 ΔT6). These cells were transfected with pGL4.32luc2P/NF-κB-RE/Hygro vector (Promega Corporation, Madison, WI) encoding an NF-κB response element that drives the luciferase reporter gene luc2P (Photinus pyralis). Cells were pre-incubated with peptides for 3 hr. followed by stimulation with human CD154. Luciferase activity was assessed using a Steady-Glo luciferase assay system (Promega Corporation) and a luminometer. The effects of peptides on cell viability were examined using alamarBlue cell viability assay.
# [1] = test system: human retinal endothelial cells; format: cell-based
# From the text: as §1, §2, §3
# CD40-TRAF2,3 signaling = assay: NF-κB luciferase reporter assay in mHEVc expressing hmCD40 ΔT6 (signals through the TRAF2,3 binding site); format: cell-based, mouse; settings: 1 μM, 3 hr pre-incubation, hmCD40 ΔT6 cells; P<0.01
# Method: Mouse endothelial cells (mHEVc) that express an NF-κB response element that drives transcription of a luciferase reporter plus either hmCD40 ΔT2,3 or hmCD40 ΔT6 were pre-incubated with ri control peptide (Ctr P) or ri CD40-TRAF2,3 blocking peptide (T2,3 BP; both at 1 μM) or medium alone followed by stimulation with human CD154. Data are expressed as fold-increase in normalized luciferase activity in cells stimulated with CD154 compared to cells treated with respective peptide in the absence of CD154. Data shown represent Mean±SD. Results are representative of 2 independent experiments. **P<0.01.
# as §3, with “assay. […]” for “assay.”
smiles,measurement,setting,value
"CC(C)C[C@@H](NC(=O)[C@@H](Cc1c[nH]cn1)NC(=O)CNC(=O)[C@@H](Cc1ccc(O)cc1)NC(=O)CNC(=O)[C@@H](CCCNC(=N)N)NC(=O)[C@@H](CCCCN)NC(=O)[C@@H](CCCCN)NC(=O)[C@@H](CCCNC(=N)N)NC(=O)[C@@H](CCCNC(=N)N)NC(=O)[C@@H](CCC(N)=O)NC(=O)[C@@H](CCCNC(=N)N)NC(=O)[C@@H](CCCNC(=N)N)NC(=O)[C@H](N)CCCNC(=N)N)C(=O)N[C@@H](C(=O)N[C@H](CCC(=O)O)C(=O)N[C@H](CCC(N)=O)C(=O)N[C@@H](C(=O)N[C@H](Cc1c[nH]cn1)C(=O)N[C@H](C)C(=O)N[C@H](C)C(=O)N[C@@H](C(=O)N[C@H](CC(N)=O)C(=O)O)[C@H](C)O)C(C)C)[C@H](C)O [ri CD40-TRAF2,3 blocking peptide, NH2-rrrqrrkkrgy ghlteqvhaatn-OH] (H-[dR][dR][dR][dQ][dR][dR][dK][dK][dR]G[dY]G[dH][dL][dT][dE][dQ][dV][dH][dA][dA][dT][dN]-OH)",toxicity (alamarBlue cell viability assay),human Müller cells,not toxic
same,toxicity (alamarBlue cell viability assay),[1],not toxic
same,NF-κB activity (luciferase) after human CD154,"CD40-TRAF2,3 signaling",inhibited NF-κB activity
